The values below come from patent US20220193386A1, “MICRONEEDLE ARRAYS FOR CANCER THERAPY APPLICATIONS” (University of Pittsburgh - Of the Commonwealth System of …, priority 2014, published 2022).

In one data set the test system is epidermal cells. Conditions: pyramidal CMC-microneedle arrays, 5 mg/g of CMC, arrays removed after 5 minutes, 72 hours of exposure. How it is done: Cytoxan® was integrated at a concentration of 5 mg/g of CMC, enabling delivery of approximately about 140 μg per array. This is a therapeutically relevant concentration based on the area of skin targeted, yet well below levels associated with systemic toxicities. Living human skin organ cultures were used to assess the cytotoxicity of Cytoxan®. Cytoxan® was delivered by application of arrays to skin explants as we previously described. Arrays and residual material were removed 5 minutes after application, and after 72 hours of exposure, culture living skin explants were cryo-sectioned and fixed. Apoptosis was evaluated using green fluorescent TUNEL assay (In Situ Cell Death Detection Kit, TMR Green, Roche, cat #:11-684-795-910).

In a further data set the test system is human skin. Kind of data set: Apoptosis and necrosis in human skin at the doxorubicin MNA dose. Conditions: MNA dose of doxorubicin chosen for the B16 study.
A further data set concerns B16 melanoma. Kind of data set: B16 melanoma model: MNA treatment of established cutaneous tumors, tumor growth and survival. To be noted: MNAs once weekly for three weeks, established B16 skin tumors; for tumor growth: vs untreated; for survival: untreated 100% mortality, through day 70.
Another data set concerns OVA. Kind of data set: OVA-specific CTL activity in vivo after CMC-microneedle array immunization. Conditions: pyramidal CMC-microneedle arrays on mouse ears, 5 minutes, boosted one week later. More on the design: species or system mice. From the text:
To directly evaluate the immunogenicity of CMC microneedle array incorporated antigens, the well characterized model antigen ovalbumin was used. Pyramidal arrays were fabricated incorporating either soluble ovalbumin (sOVA), particulate ovalbumin (pOVA), or arrays containing both pOVA along with CpGs. The adjuvant effects of CpGs are well characterized in animal models, and their adjuvanticity in humans is currently being evaluated in clinical trials.
Immunization was achieved by applying antigen containing CMC-microneedle arrays to the ears of anesthetized mice using a spring-loaded applicator as described above, followed by removal of the arrays 5 minutes after application. These pyramidal microneedle arrays contained about 5 wt % OVA in CMC and about 0.075 wt % (20 μM) CpG. As a positive control, gene gun based genetic immunization strategy using plasmid DNA encoding OVA was used.
Mice were immunized, boosted one week later, and then assayed for OVA-specific CTL activity in vivo. […] It is well established that similar responses require substantially higher doses of antigen when delivered by traditional needle injection.
To evaluate the stability of fabricated arrays, batches of arrays were fabricated, stored, and then used over an extended period of time. […]

Experimental for B16 melanoma: The B16 melanoma model was used as a model tumor to test these novel approaches.
B16 skin tumors were established in normal mice by injection. Visible established cutaneous tumors were treated once weekly for three weeks with MNAs containing either doxorubicin alone, Poly(I:C) alone, or doxorubicin and Poly(I:C) incorporated into the same MNA. […] Tumor growth and survival were measured regularly for the duration of the study.

`O=P1(N(CCCl)CCCl)NCCCO1` (centres unmarked) [Cytoxan®, cyclophosphamide]: the “apoptosis of epidermal cells (TUNEL)” value with epidermal cells is given as “extensive apoptosis of epidermal cells”.
For the molecule `COc1cccc2c1C(=O)c1c(O)c3c(c(O)c1C2=O)C[C@@](O)(C(=O)CO)C[C@@H]3O[C@H]1C[C@H](N)[C@H](O)[C@H](C)O1` [doxorubicin], the “apoptosis / necrosis in human skin” value with human skin was “induces apoptosis in human skin without causing necrosis”. Also, in the data set with B16 melanoma, the tumor growth entry is on record as “slowed tumor growth” and the survival worked out at 30%.
Take Poly(I:C): in the data set on B16 melanoma, the tumor growth result is “slowed tumor growth” and the survival stood at 50%.
For the molecule “particulate OVA: particulate ovalbumin model antigen incorporated in pyramidal CMC microneedle arrays”, the “OVA-specific CTL activity in vivo” value with OVA is “Significant OVA-specific CTL activity”.
For the molecule “soluble OVA: soluble ovalbumin model antigen incorporated in pyramidal CMC microneedle arrays”, in the data set on OVA, the “OVA-specific CTL activity in vivo” value is “Significant OVA-specific CTL activity”.
